This is an account of results in patent publication US20240391882A1 (Mirati Therapeutics, Inc., priority 2023, published 2024).

Format in all cases: cell-based
The test system of experiment [1] is pAKT in T47D (PI3Kα H1047R mutant) cells. Nature of the experiment: Inhibition of pAKT (alphaLISA Surefire Ultra AKT 1/2/3 pS473) in T47D cells. The following applies: Homo sapiens; T47D (PI3Kα H1047R mutant) cells, 24 hr compound incubation, alphaLISA pS473; read-out: T47D (H1047R) pAKT 24 hr (IC50). The gist of the method:
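AlphaLISA read-out of AKT pS473 in lysates after roughly 24 h compound exposure at 37° C in HBSS. Ten concentrations, 1:4 dilutions from a 10.4 μm top dose. Percent of control uses alpelisib at 3.125 μm as background and DMSO as vehicle; four-parameter curve gives IC50.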
(In general: Bead proximity is the source of the signal in Alpha formats.)

The subject of experiment [2] is T47D (PI3Kα H1047R mutant) cells. Nature of the experiment: Cell viability (CellTiter-Glo 2.0) in T47D cells. The following applies: Homo sapiens, T47D, 72 h, approximately 72 hours. The gist of the method:
(§1)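 IC50 values derive from four-parameter fits of CellTiter-Glo luminescence expressed as percent of vehicle control. Cells (T47D or SKBR3) were plated at 1000/well the day before dosing and incubated about 72 h at 37° C with a 10-point, 1:4 series starting at 10 μm.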
In general terms: Cellular ATP, detected with luciferase, serves as a proxy for viable cell number.

Experiment [3] concerns SKBR3 (PI3Kα wild type) cells. Briefly: Cell viability (CellTiter-Glo 2.0) in SKBR3 cells. To be noted: Homo sapiens, SK-BR-3; SKBR3 (PI3Kα wild type) cells, approximately 72 hours, CellTiter-Glo 2.0; read-out: SKBR3 (WT) Viability IC50. Summed up:
as §1

Broadly, the IC50 is the point on the concentration scale where inhibition reaches its midpoint.

In the case of `C[C@@H](Nc1ccc(Cl)nc1C(=O)O)c1cc(Cl)cc2nc(C#N)c(N3CCC(F)(F)CC3)nc12` [Example 34, (R)-6-chloro-3-((1-(7-chloro-2-cyano-3-(4,4-difluoropiperidin-1-yl)quinoxalin-5-yl)ethyl)amino)picolinic acid], the IC50 was 0.0062 µM in experiment [1], 0.0482 µM in experiment [2] and more than 10 µM in experiment [3].

Regarding `Cc1cc([C@@H](C)Nc2ccc(Cl)nc2C(=O)O)c2nc(N3CCC(F)(F)CC3)c(C)nc2c1` [Example 35, (R)-6-chloro-3-((1-(3-(4,4-difluoropiperidin-1-yl)-2,7-dimethylquinoxalin-5-yl)ethyl)amino)picolinic acid], the IC50 in experiment [1] turned out to be 0.0031 µM; in experiment [2], 0.166 µM; in experiment [3] it was 8.29 µM.

Turning to `Cc1cc([C@@H](C)Nc2ccccc2C(=O)O)c2nc(N3CCC(F)(F)CC3)c(C)nc2c1` [Example 36, (R)-2-((1-(3-(4,4-difluoropiperidin-1-yl)-2,7-dimethylquinoxalin-5-yl)ethyl)amino)benzoic acid], the IC50 in experiment [1] is 0.0937 µM; in experiment [2], 1.17 µM; in experiment [3] it was more than 10 µM.

For the molecule `C[C@@H](Nc1ccccc1C(=O)O)c1cc(C2CC2)cc2nc(C#N)c(N3CCC(F)(F)CC3)nc12` [Example 37, (R)-2-((1-(2-cyano-7-cyclopropyl-3-(4,4-difluoropiperidin-1-yl)quinoxalin-5-yl)ethyl)amino)benzoic acid], the IC50 in experiment [1] is 0.0946 µM; in experiment [2], 0.588 µM; in experiment [3], more than 10 µM.

As for `Cc1cc([C@@H](C)Nc2ccc(Cl)nc2C(=O)O)c2nc(C3CC3)c(C#N)nc2c1` [Example 44, (R)-6-chloro-3-((1-(2-cyano-3-cyclopropyl-7-methylquinoxalin-5-yl)ethyl)amino)picolinic acid], the IC50 was 0.002 µM in experiment [1], 0.157 µM in experiment [2] and more than 10 µM in experiment [3].

With `Cc1cc([C@@H](C)Nc2ccc(Cl)nc2C(=O)O)c2nc(N3CCCC(C(F)(F)F)C3)c(C#N)nc2c1` (stereo partly drawn) [Example 45, 6-chloro-3-(((1R)-1-(2-cyano-7-methyl-3-(3-(trifluoromethyl)piperidin-1-yl)quinoxalin-5-yl)ethyl)amino)picolinic acid], the IC50 in experiment [1] was 0.0068 µM; in experiment [2] it was 0.115 µM; in experiment [3], more than 10 µM.

For the molecule `Cc1cc([C@@H](C)Nc2ccccc2C(=O)O)c2nc(N3CC(C)(C)C3)c(C#N)nc2c1` [Example 55, (R)-2-((1-(2-cyano-3-(3,3-dimethylazetidin-1-yl)-7-methylquinoxalin-5-yl)ethyl)amino)benzoic acid], the IC50 in experiment [1] was 0.0216 µM; in experiment [2] it was 0.422 µM; in experiment [3], more than 10 µM.

Turning to `Cc1cc([C@@H](C)Nc2ccc(Cl)nc2C(=O)O)c2nc(N3CC(C)(C)C3)c(C#N)nc2c1` [Example 56, (R)-6-chloro-3-((1-(2-cyano-3-(3,3-dimethylazetidin-1-yl)-7-methylquinoxalin-5-yl)ethyl)amino)picolinic acid], the IC50 in experiment [1] was 0.0047 µM; in experiment [2], 0.128 µM; in experiment [3], more than 10 µM.

Consider `Cc1cc([C@@H](C)Nc2ccccc2C(=O)O)c2nc(N3CCOCC3)c(C#N)nc2c1` [Example 57, (R)-2-((1-(2-cyano-7-methyl-3-morpholinoquinoxalin-5-yl)ethyl)amino)benzoic acid], for which the IC50 in experiment [1] was 0.014 µM; in experiment [2], 0.165 µM; in experiment [3], more than 10 µM.

`Cc1cc([C@@H](C)Nc2ccc(Cl)nc2C(=O)O)c2nc(N3CCOCC3)c(C#N)nc2c1` [Example 58, (R)-6-chloro-3-((1-(2-cyano-7-methyl-3-morpholinoquinoxalin-5-yl)ethyl)amino)picolinic acid]: the values for the IC50 in experiment [1], in experiment [2] and in experiment [3] were 0.0018 µM, 0.024 µM and 3.5 µM, respectively.

As for `Cc1cc([C@@H](C)Nc2ccccc2C(=O)O)c2nc(N3CCC(C)(C)CC3)c(C#N)nc2c1` [Example 61, (R)-2-((1-(2-cyano-3-(4,4-dimethylpiperidin-1-yl)-7-methylquinoxalin-5-yl)ethyl)amino)benzoic acid], the values for the 50% inhibitory concentration (IC50) in experiment [1], in experiment [2] and in experiment [3] were 0.0386 µM, 0.513 µM and more than 10 µM, respectively.

`Cc1cc([C@@H](C)Nc2ccc(Cl)nc2C(=O)O)c2nc(N3CCC(C)(C)CC3)c(C#N)nc2c1` [Example 62, (R)-6-chloro-3-((1-(2-cyano-3-(4,4-dimethylpiperidin-1-yl)-7-methylquinoxalin-5-yl)ethyl)amino)picolinic acid]: the values for the IC50 in experiment [1], in experiment [2] and in experiment [3] were 0.0079 µM, 0.22 µM and 7.08 µM, respectively.

For the molecule `COC1(C)CN(c2nc3c([C@@H](C)Nc4ccccc4C(=O)O)cc(C)cc3nc2C#N)C1` [Example 63, (R)-2-((1-(2-cyano-3-(3-methoxy-3-methylazetidin-1-yl)-7-methylquinoxalin-5-yl)ethyl)amino)benzoic acid], the concentration for half-maximal inhibition (IC50) in experiment [1] was determined as 0.0165 µM; in experiment [2], 0.254 µM; in experiment [3] it was 9.81 µM.

Take `COC1(C)CN(c2nc3c([C@@H](C)Nc4ccc(Cl)nc4C(=O)O)cc(C)cc3nc2C#N)C1` [Example 64, (R)-6-chloro-3-((1-(2-cyano-3-(3-methoxy-3-methylazetidin-1-yl)-7-methylquinoxalin-5-yl)ethyl)amino)picolinic acid]: the IC50 was 0.0013 µM in experiment [1], 0.044 µM in experiment [2] and more than 10 µM in experiment [3].

For `Cc1cc([C@@H](C)Nc2ccccc2C(=O)O)c2nc(C3CC3)c(C#N)nc2c1` [Example 67, (R)-2-((1-(2-cyano-3-cyclopropyl-7-methylquinoxalin-5-yl)ethyl)amino)benzoic acid], the IC50 in experiment [1] was found to be 0.072 µM; in experiment [2], 0.687 µM; in experiment [3] it was 2.77 µM.

Regarding `Cc1cc([C@@H](C)Nc2ccccc2C(=O)O)c2nc(N3CCCC3)c(C#N)nc2c1` [Example 68, (R)-2-((1-(2-cyano-7-methyl-3-(pyrrolidin-1-yl)quinoxalin-5-yl)ethyl)amino)benzoic acid], the figures for the IC50 in experiment [1], in experiment [2] and in experiment [3] were 0.0244 µM, 0.391 µM and more than 10 µM, respectively.

`Cc1cc([C@@H](C)Nc2ccc(Cl)nc2C(=O)O)c2nc(N3CCCC3)c(C#N)nc2c1` [Example 69, (R)-6-chloro-3-((1-(2-cyano-7-methyl-3-(pyrrolidin-1-yl)quinoxalin-5-yl)ethyl)amino)picolinic acid]: the IC50 in experiment [1] worked out at 0.0021 µM; in experiment [2] it was 0.0502 µM; in experiment [3], 9.65 µM.

Turning to `Cc1cc([C@@H](C)Nc2ccc(Cl)nc2C(=O)O)c2nc(N3CCC(F)(F)C3)c(C#N)nc2c1` [Example 70, (R)-6-chloro-3-((1-(2-cyano-3-(3,3-difluoropyrrolidin-1-yl)-7-methylquinoxalin-5-yl)ethyl)amino)picolinic acid], the IC50 in experiment [1] came out at 0.0026 µM; in experiment [2], 0.031 µM; in experiment [3], 9.65 µM.

Turning to `Cc1cc([C@@H](C)Nc2ccc(Cl)nc2C(=O)O)c2nc(N3CCC4(CC3)C(F)(F)C4(F)F)c(C#N)nc2c1` [Example 82, (R)-6-chloro-3-((1-(2-cyano-7-methyl-3-(1,1,2,2-tetrafluoro-6-azaspiro[2.5]octan-6-yl)quinoxalin-5-yl)ethyl)amino)picolinic acid], the IC50 in experiment [1] came out at 0.0045 µM; in experiment [2] it was 0.121 µM; in experiment [3] it was 5.03 µM.
